In paper PMC3793924, “Targeting Androgen Receptor/Src Complex Impairs the Aggressive Phenotype of Human Fibrosarcoma Cells” (PLoS ONE, 2013):

Legend:
MCF-7 cells [1] = assay: Trans-well migration of MCF-7 cells; assay type: cell-based, human; conditions: quiescent MCF-7 cells, EGF 100 ng/ml, 6 h; for Inhibition of EGF-induced motility (transmigration): Casodex 10 μM, S1 and Ss peptides 10 nM
MCF-7 cells [2] = assay: BrdU incorporation in MCF-7 cells; assay type: cell-based, human; conditions: quiescent MCF-7 cells, EGF 100 ng/ml, 18 h; for Inhibition of EGF-induced BrdU incorporation: Casodex 10 μM, S1 and Ss peptides 1nM
Protocol: Quiescent human prostate cancer-derived LNCaP cells were used. In A, quiescent cells on coverslips were left unstimulated or stimulated for 18 h with the indicated compounds. […] After in vivo pulse with BrdU (100 μM), BrdU incorporation was analyzed by IF and expressed as % of total cells. Several independent experiments were performed in duplicate and the results were derived from at least 600 scored cells for each coverslip. Mean and SEM are shown. n represents the number of experiments. In B, the cells were left untreated or treated for 6 h with the indicated compounds. […] Cells were allowed to migrate in collagen pre-coated Trans-well filters. Migrated cells were stained and counted as reported in Methods. Results were derived from several independent experiments, each performed in duplicate. Data are expressed as relative increase. Mean and SEM are shown. n represents the number of experiments. Quiescent human breast cancer-derived MCF-7 cells were used. In C, quiescent cells on coverslips were left un-stimulated or stimulated for 18 h with the indicated compounds. […] After in vivo pulse with BrdU (100 μM), BrdU incorporation was analyzed by IF and expressed as % of total cells. Several independent experiments were performed in duplicate and the results were derived from at least 500 scored cells for each coverslip. Mean and SEM are shown. n represents the number of experiments. In D, the cells were left untreated or treated for 6 h with the indicated compounds. […] Cells were allowed to migrate in collagen-pre-coated Trans-well filters. Migrated cells were stained and counted as reported in Methods. Results were derived from several independent experiments, each performed in duplicate. Data are expressed as relative increase. Mean and SEM are shown. n represents the number of experiments.

HCT116 cells = assay: BrdU incorporation in HCT116 cells; assay type: cell-based, human; conditions: quiescent HCT116 cells, EGF 100 ng/ml, 18 h; for Inhibition of EGF-induced BrdU incorporation: Casodex 10 μM, S1 and Ss peptides 10 nM
Protocol: Quiescent human colon cancer-derived HCT116 cells were used. In A, cells on coverslips were left un-stimulated or stimulated for 18 h with the indicated compounds. […] After in vivo pulse with BrdU (100 μM), BrdU incorporation was analyzed by IF and expressed as % of total cells. Several independent experiments were performed in duplicate and the results were derived from at least 400 scored cells for each coverslip. Mean and SEM are shown. n represents the number of experiments. In B, the cells were left untreated or treated for 6 h with the indicated compounds. […] Cells were allowed to migrate in collagen-pre-coated Trans-well filters. Migrated cells were stained and counted as reported in Methods. Results were derived from several independent experiments, each performed in duplicate. Data are expressed as relative increase. Mean and SEM are shown. n represents the number of experiments. Quiescent human pancreatic cancer-derived KP-2 cells were used. In C, cells on coverslips were left unstimulated or stimulated for 18 h with the indicated compounds. […] After in vivo pulse with BrdU (100 μM), BrdU incorporation was analyzed by IF and expressed as % of total cells. Several independent experiments were performed in duplicate and the results were derived from at least 400 scored cells for each coverslip. Mean and SEM are shown. n represents the number of experiments. In D, the cells were left untreated or treated for 6 h with the indicated compounds. […] Cells were allowed to migrate in collagen-pre-coated Trans-well filters. Migrated cells were stained and counted as reported in Methods. Results were derived from several independent experiments, each performed in duplicate. Data are expressed as relative increase. Mean and SEM are shown. n represents the number of experiments. […] After in vivo labeling with 100 μM BrdU (Sigma), DNA synthesis was analyzed by immunofluorescence, using diluted (1:50 in PBS) mouse monoclonal anti-BrdU antibody (clone BU-1, from GE Healthcare).

HT1080 cells = assay: Wound scratch assay in HT1080 cells; assay type: cell-based, human; conditions: quiescent HT1080 cells, EGF 100 ng/ml, 6 h; for Effect on EGF-induced wound closure (migration): Casodex 10 μM, S1 and Ss peptides 10 nM
NIH3T3 cells = assay: Trans-well migration of NIH3T3 fibroblasts; assay type: cell-based, mouse; conditions: EGF 100 ng/ml, 6 h; for Inhibition of EGF-induced motility (Trans-well): quiescent NIH3T3 fibroblasts, Casodex 10 µM, S1 and Ss peptides 10 nM
Protocol: NIH3T3 cells were used. In A, cells were transfected with 3416 or 3424 ARE-Luc constructs with or without hAR-expressing plasmid and then made quiescent as reported in Methods. Cells were left unstimulated or stimulated for 18 h with 10 nM R1881. Luciferase activity was assayed, normalized using beta-gal as an internal control, and expressed as fold induction. Three independent experiments were performed in triplicate. Means and SEM are shown; n represents the number of experiments. […] After in vivo labeling with BrdU (100 μM), BrdU incorporation was analyzed by IF and expressed as % of total cells. Several independent experiments were performed in duplicate and data derived from at least 700 scored cells for each coverslip. Mean and SEM are shown. n represents the number of experiments. […] Quiescent NIH3T3 fibroblasts were used. In C, cells on coverslips were left unstimulated or stimulated for 18 h with the indicated compounds. […] After in vivo pulse with BrdU (100 μM), BrdU incorporation was analyzed by IF and expressed as % of total cells. Several independent experiments were performed in duplicate and the results were derived from at least 500 scored cells for each coverslip. Mean and SEM are shown. n represents the number of experiments. […] The Western blot of MCF-7 cell lysate with the anti-tubulin or the anti-EGFR antibody is shown for comparison. In D, cells were left untreated or treated for 6 h with the indicated compounds. […] Cells were allowed to migrate in collagen pre-coated Trans-well filters. Migrated cells were stained and counted as reported in Methods.

MMP-9 = assay: Protease activity of MMP-9 released from HT1080 cells; assay type: cell-based, human; conditions: quiescent HT1080 cells; for Inhibition of EGF-stimulated MMP-9 secretion (protease activity): EGF 100 ng/ml 5 min, Casodex 10 μM, S1 and Ss peptides 10 nM added 30 min before EGF
KP-2 cells = assay: Trans-well migration of KP-2 cells; assay type: cell-based, human; conditions: quiescent KP-2 cells, EGF 100 ng/ml, 6 h; for Inhibition of EGF-induced motility (transmigration): Casodex 10 μM, S1 and Ss peptides 10 nM
Src tyrosine kinase = molecular target: T1, Src tyrosine kinase (Homo sapiens, UniProt P12931); assay: Src kinase activity in immune complexes from HT1080 cells (enolase substrate); assay type: cell-based; conditions: quiescent HT1080 cells, EGF 100 ng/ml 10 min; S1 and Ss peptides 1 nM; Casodex 10 μM
T1 construct: lysates were immune-precipitated with the anti-Src MAb and Src activity in immune complexes was assayed using acidified enolase; endogenous in cells; host or cells: HT1080 human fibrosarcoma cells
T1 sequence (P12931 whole entry): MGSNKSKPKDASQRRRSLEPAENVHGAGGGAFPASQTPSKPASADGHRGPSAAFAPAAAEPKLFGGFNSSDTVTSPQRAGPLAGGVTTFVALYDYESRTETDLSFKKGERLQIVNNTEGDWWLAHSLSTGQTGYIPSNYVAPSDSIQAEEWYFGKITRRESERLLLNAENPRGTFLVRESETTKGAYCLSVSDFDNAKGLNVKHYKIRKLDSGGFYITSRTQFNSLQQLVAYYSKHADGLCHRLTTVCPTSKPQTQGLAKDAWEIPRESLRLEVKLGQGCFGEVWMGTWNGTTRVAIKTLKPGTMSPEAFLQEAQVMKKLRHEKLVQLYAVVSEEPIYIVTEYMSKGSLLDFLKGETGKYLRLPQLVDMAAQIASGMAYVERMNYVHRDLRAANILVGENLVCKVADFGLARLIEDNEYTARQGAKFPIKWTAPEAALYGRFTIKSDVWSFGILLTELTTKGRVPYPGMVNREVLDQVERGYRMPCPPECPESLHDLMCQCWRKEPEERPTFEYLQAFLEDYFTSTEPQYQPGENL
Protocol: Quiescent HT1080 cells were used. […] Casodex (at 10 μM) was used for comparison with the S1 peptide. Upper section in A, Western blot of HT1080 cell lysates with anti-EGFR antibody. […] In B, lysates were immune-precipitated with the anti-Src MAb and Src activity in immune complexes was assayed using acidified enolase, as a substrate. In C, cells on coverslips were left untreated or treated for 18 h with the indicated compounds. After in vivo pulse with BrdU (100 μM), BrdU incorporation was analyzed by IF and expressed as % of total nuclei. Several independent experiments were performed in duplicate and the results were obtained from at least 500 scored cells for each coverslip. Mean and SEM are shown. n represents the number of experiments.
Lysates (at 2 mg/ml protein concentration) were prepared as described. […] The Src tyrosine kinase activity in immunocomplexes was assayed using enolase (Sigma) as a substrate.

| Compound | Motility in transmigration assay upon stimulation (MCF-7 cells [1]) | BrdU incorporation upon stimulation (MCF-7 cells [2]) | BrdU incorporation upon stimulation (HCT116 cells) | Wound closure upon stimulation (HT1080 cells) | Motility upon stimulation (NIH3T3 cells; quiescent NIH3T3 cells) | Increase of protease activity of MMP-9 released (MMP-9; EGF 100 ng/ml, 5 min) | Motility upon stimulation (KP-2 cells) | Inhibition of EGF-induced motility (transmigration) (MCF-7 cells [1]) | Inhibition of EGF-induced BrdU incorporation (MCF-7 cells [2]) | Inhibition of EGF-induced BrdU incorporation (HCT116 cells) | Inhibition of EGF-triggered Src activity stimulation (Src tyrosine kinase) | Effect on EGF-induced wound closure (migration) (HT1080 cells) | Inhibition of EGF-induced motility (Trans-well) (NIH3T3 cells) | Inhibition of EGF-stimulated MMP-9 secretion (protease activity) (MMP-9) | Inhibition of EGF-induced motility (transmigration) (KP-2 cells) |
| --- | --- | --- | --- | --- | --- | --- | --- | --- | --- | --- | --- | --- | --- | --- | --- |
| EGF: epidermal growth factor (Roche), used as stimulus at 100 ng/ml | significantly increases the motility | robustly incorporate BrdU | robustly increases BrdU incorporation | almost complete wound closure | significantly increases | about 2 fold | significantly increases |  |  |  |  |  |  |  |  |
| Ac-PPPHPHARIK-NH2 [S1 peptide] |  |  |  |  |  |  |  | inhibited to a similar extent | abolishes the mitogenic response elicited by EGF | similarly inhibit these EGF-elicited responses | completely abolishes | consistently inhibits the EGF-induced effect | significantly inhibit both the responses | inhibits the EGF effect on MMP-9 secretion | inhibit both DNA synthesis and motility |
| CC(O)(CS(=O)(=O)c1ccc(F)cc1)C(=O)Nc1ccc(C#N)c(C(F)(F)F)c1 (stereo not drawn) [Casodex] |  |  |  |  |  |  |  | inhibited to a similar extent | inhibits EGF-induced BrdU incorporation | similarly inhibit these EGF-elicited responses | This inhibition is comparable to that observed by treatment of cells with 10 μM Casodex | Only few cells migrate | significantly inhibit both the responses | inhibits this response | inhibit both DNA synthesis and motility |
| Ac-HPKPARIPHP-NH2 [Ss peptide] |  |  |  |  |  |  |  |  | only slightly affects DNA synthesis | does not interfere with the EGF-elicited responses | only slightly affects | much weaker inhibitory effect | slightly modifies | negligible inhibitory effect | does not interfere with the EGF-elicited responses |
